Results as given in ChEMBL document CHEMBL1201862, “PubChem BioAssay data set” (2004).
The source made the active and inactive calls.

Columns and labels:
[1] = biological target: Induced myeloid leukemia cell differentiation protein Mcl-1 (Homo sapiens, UniProt Q07820); experiment: blockers of MCL1 binding to BIM peptide – biochemical, fluorescence polarization, BIM-BH3 peptide, 1536-well, dose response (AID 2217)
Bcl-2-like protein 1 = Bcl-2-like protein 1 (Homo sapiens, UniProt Q07817); experiment: blockers of BCLXL peptide binding – biochemical, fluorescence polarization, 1536-well, selectivity assay for MCL1 inhibitor project, dose response (AID 2218)
Caspase-6 = biological target: T1, Caspase-6 (Homo sapiens, UniProt P55212); experiment: inhibition of CASP6 peptide cleavage – biochemical, VEID-R110 fluorescence, cherry-pick, dose response (AID 720632)
T1 sequence (P55212 whole entry): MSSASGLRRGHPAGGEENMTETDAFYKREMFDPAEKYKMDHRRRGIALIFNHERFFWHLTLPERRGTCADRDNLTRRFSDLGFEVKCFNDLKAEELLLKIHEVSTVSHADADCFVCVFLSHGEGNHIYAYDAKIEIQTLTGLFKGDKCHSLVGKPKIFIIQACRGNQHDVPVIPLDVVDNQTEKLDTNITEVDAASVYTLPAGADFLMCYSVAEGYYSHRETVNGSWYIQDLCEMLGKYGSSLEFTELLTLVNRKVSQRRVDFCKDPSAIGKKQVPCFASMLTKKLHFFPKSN

[2] = biological target: T2, Small ubiquitin-related modifier 1 (Homo sapiens, UniProt P63165); experiment: SUMO1 protein-protein binding blockers, potency – biochemical, FRET, dose response (AID 624383); format: functional; details: read-out: IC50_Mean
[3] = biological target: T3, Carboxy-terminal domain RNA polymerase II polypeptide A small phosphatase 1 (Homo sapiens, UniProt Q9GZU7); experiment: CTDSP1 inhibitors, concentration-response, biochemical, absorbance readout, ultra-high-throughput screen actives (AID 540297); format: functional
T3 sequence (Q9GZU7 whole entry): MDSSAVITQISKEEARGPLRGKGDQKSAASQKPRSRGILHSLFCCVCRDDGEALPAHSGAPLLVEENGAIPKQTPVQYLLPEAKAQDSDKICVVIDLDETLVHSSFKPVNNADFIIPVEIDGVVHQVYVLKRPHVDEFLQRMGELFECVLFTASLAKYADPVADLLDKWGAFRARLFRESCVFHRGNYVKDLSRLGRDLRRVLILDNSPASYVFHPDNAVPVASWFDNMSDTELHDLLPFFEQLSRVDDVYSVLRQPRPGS

[4] = biological target: T2, Small ubiquitin-related modifier 1; experiment: SUMO1 protein interaction blockers, potency – biochemical, fluorescence polarization, uHTS hits, dose response (AID 624382); format: functional; details: read-out: IC50_Mean
Vero [5] = experiment: mammalian cell viability reduction – secondary assay, cytotoxicity control for West Nile virus antiviral project, dose response (AID 1650); format: functional; details: Chlorocebus sabaeus
[6] = Counterscreen for activators of the function of SWI/SNF related, matrix associated, actin dependent regulator of chromatin, subfamily a, member 2 (SMARCA2, BRM): Luminescence-based cell-based high throughput dose response assay to identify non-selective compounds using the VP16 reporter assay.; format: functional
[7] = biological target: SWI/SNF-related matrix-associated actin-dependent regulator of chromatin subfamily A member 2 (Homo sapiens, UniProt P51531); experiment: Luminescence-based cell-based high throughput dose response assay to identify activators of the function of SWI/SNF related, matrix associated, actin dependent regulator of chromatin, subfamily a, member 2 (SMARCA2, BRM).; format: functional
Vero [8] = experiment: cells; format: functional; details: Chlorocebus sabaeus
NADPH oxidase 1 = NADPH oxidase 1 (Homo sapiens, UniProt Q9Y5S8); experiment: Late-stage luminescence-based cell-based dose response assay to identify inhibitors of NADPH oxidase 1 (NOX1): Synthesized analogs 2.; format: functional
[9] = biological target: T4, Replicative DNA helicase DnaB (Mycobacterium tuberculosis, UniProt P9WMR3); experiment: DnaB intein splicing inhibitors, dose response, biochemical, cell-free fluorescence (AID 449749); format: functional
T4 sequence (P9WMR3 whole entry): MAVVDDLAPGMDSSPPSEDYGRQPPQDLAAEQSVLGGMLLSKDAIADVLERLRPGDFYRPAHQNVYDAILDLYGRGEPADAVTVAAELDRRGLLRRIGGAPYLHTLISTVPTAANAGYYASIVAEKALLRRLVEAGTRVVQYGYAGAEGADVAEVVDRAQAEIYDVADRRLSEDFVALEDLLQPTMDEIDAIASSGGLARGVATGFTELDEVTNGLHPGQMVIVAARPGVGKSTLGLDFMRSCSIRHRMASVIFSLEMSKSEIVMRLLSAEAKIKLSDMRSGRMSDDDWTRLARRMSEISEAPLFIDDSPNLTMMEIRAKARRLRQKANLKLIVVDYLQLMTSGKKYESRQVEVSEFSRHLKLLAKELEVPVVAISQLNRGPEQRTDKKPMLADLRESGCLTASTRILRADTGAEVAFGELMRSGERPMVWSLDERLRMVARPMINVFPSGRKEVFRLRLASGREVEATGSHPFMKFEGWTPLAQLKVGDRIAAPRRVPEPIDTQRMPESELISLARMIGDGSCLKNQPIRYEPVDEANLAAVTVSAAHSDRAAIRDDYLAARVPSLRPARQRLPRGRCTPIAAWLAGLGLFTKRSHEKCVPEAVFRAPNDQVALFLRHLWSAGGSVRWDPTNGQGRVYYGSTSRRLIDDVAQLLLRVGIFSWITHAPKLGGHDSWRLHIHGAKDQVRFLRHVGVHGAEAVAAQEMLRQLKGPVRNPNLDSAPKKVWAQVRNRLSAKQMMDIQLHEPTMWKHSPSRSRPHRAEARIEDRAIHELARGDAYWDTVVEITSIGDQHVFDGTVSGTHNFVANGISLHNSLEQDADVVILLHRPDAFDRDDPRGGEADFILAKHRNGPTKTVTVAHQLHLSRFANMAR

[10] = reduction of Shn3 3'UTR-driven luciferase in osteoblasts – cell-based, Clone20 osteoblasts, firefly luciferase, cherry-picked, dose response (AID 624132); format: functional;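 further: firefly luciferase luminescence from reporter carrying the Shn3 3'UTR in osteoblasts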
[11] = non-specific 3'UTR reporter inhibition in Clone20-Shn3RL – cell-based, Renilla luciferase, cherry-picked, counter-screen for Shn3 inhibitor project, dose response (AID 624133); format: functional
[12] = biological target: T5, High affinity choline transporter 1 (Homo sapiens, UniProt Q9GZV3); experiment: human choline transporter blockers, potency – cell-based, 5-point CRC, membrane potential dye, dose response (AID 504840); format: functional
T5 sequence (Q9GZV3 whole entry): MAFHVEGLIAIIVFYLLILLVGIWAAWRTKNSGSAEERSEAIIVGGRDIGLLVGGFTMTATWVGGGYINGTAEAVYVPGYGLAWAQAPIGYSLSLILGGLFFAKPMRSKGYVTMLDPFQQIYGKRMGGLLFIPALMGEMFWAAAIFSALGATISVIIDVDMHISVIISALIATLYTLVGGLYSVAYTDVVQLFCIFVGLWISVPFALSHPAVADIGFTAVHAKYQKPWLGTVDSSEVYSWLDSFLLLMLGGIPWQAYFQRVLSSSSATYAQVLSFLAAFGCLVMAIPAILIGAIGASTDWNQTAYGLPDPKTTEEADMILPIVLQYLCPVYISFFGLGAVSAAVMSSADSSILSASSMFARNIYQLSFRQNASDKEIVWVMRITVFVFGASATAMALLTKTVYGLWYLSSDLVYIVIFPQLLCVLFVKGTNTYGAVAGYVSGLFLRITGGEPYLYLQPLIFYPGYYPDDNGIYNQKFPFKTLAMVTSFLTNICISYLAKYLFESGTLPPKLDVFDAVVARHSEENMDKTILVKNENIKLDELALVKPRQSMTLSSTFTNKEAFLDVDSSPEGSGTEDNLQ

Vero [13] = experiment: viability of Vero cells under compound – cytotoxicity control for flavivirus capping enzyme inhibitors (AID 588742); format: functional; details: Chlorocebus sabaeus
[14] = biological target: ATP-binding cassette sub-family B member 6 (Homo sapiens, UniProt Q9NP58); experiment: ABCB6 transporter inhibitors, porphyrin accumulation, dose response, flow cytometry, K562-ABCB6 cells, cherry pick 02 (AID 624487); format: functional; details: read-out: EC50_MICROM
Protein RecA = biological target: T6, Protein RecA (Mycobacterium tuberculosis, UniProt P9WHJ3); experiment: Fluorescence Cell-Free Homogeneous Dose Retest to Identify Inhibitors of RecA-Intein Splicing Activity. [Related pubchem assays (depositor defined):AID2097, AID2223, AID489010, AID492950]; format: functional
T6 sequence (P9WHJ3 whole entry): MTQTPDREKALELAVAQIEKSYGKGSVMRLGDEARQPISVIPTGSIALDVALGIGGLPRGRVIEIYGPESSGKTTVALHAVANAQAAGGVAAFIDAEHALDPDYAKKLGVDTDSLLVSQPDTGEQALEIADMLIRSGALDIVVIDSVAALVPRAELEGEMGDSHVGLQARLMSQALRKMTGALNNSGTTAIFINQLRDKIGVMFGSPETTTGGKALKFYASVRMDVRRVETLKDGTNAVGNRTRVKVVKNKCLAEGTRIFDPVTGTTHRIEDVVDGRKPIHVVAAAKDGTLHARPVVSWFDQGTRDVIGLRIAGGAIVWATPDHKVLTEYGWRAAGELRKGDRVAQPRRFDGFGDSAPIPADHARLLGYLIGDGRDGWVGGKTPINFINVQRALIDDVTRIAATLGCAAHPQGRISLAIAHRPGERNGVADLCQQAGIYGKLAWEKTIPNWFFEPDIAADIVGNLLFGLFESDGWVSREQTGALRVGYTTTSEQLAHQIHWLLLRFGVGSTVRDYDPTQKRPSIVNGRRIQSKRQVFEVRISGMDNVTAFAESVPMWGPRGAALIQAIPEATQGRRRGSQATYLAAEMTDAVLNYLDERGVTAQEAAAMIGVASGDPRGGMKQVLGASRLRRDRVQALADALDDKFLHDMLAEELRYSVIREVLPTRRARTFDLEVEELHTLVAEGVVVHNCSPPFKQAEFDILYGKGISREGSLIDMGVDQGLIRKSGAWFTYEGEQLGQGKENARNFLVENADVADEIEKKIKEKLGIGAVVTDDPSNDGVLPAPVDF

[15] = biological target: Potassium voltage-gated channel subfamily KQT member 2 (Rattus norvegicus, UniProt O88943, W236L); experiment: potentiation of rat KCNQ2 current – cell-based, automated electrophysiology, mechanism study for KCNQ2 potentiator project, dose response (AID 2603); format: functional
[16] = biological target: T5, High affinity choline transporter 1; experiment: human choline transporter blockers, potency – cell-based, 10-point CRC, membrane potential dye, dose response (AID 588401); format: functional;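 further: membrane potential dye fluorescence of choline-evoked depolarization via CHT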
[17] = loss of viability in HepG2 cells – cell-based, CellTiter-Glo, cherry-picked, cytotoxicity control for Shn3 inhibitor project, dose response (AID 624134); format: functional
Genome polyprotein = Genome polyprotein (dengue virus type 2, UniProt P29990); experiment: flavivirus cap methylation enzyme inhibition – biochemical, confirmation dose response, primary screen (AID 588689); format: functional
[18] = M. tuberculosis H37Rv growth inhibitors, H37Rv strain (AID 1626); format: functional
Bcl-2-related protein A1 [19] = biological target: T7, Bcl-2-related protein A1 (Mus musculus, UniProt Q07440); experiment: Bfl-1 binding inhibitors, SAR follow-up, biochemical, fluorescence polarization (AID 1070)
T7 sequence (Q07440 whole entry): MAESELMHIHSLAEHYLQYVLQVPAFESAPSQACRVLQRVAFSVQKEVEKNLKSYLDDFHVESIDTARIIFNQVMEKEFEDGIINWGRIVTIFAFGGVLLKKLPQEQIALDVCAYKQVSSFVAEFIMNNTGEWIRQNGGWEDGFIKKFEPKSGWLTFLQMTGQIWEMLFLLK

Bcl-2-related protein A1 [20] = biological target: T7, Bcl-2-related protein A1; experiment: small-molecule antagonists of Bfl-1/BH3 interaction – biochemical, TR-FRET, mouse Bfl-1, confirmation (AID 621);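 further: TR-FRET binding of GST-Bfl-1 to FITC-labelled Bid peptide via terbium antibody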
[21] = biological target: Glyceraldehyde-3-phosphate dehydrogenase (Homo sapiens, UniProt P04406)
Chain of Glyceraldehyde-3-phosphate dehydrogenase (P04406 whole entry): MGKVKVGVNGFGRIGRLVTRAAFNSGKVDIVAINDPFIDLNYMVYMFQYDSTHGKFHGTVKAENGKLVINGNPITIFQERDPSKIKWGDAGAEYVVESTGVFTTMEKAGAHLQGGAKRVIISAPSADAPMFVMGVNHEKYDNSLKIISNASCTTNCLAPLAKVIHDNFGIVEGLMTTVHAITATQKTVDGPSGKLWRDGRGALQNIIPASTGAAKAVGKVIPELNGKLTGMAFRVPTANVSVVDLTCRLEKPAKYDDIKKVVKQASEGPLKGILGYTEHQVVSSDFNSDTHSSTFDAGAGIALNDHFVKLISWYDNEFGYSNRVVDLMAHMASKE

T2 sequence (P63165 whole entry, the tested form may be a part): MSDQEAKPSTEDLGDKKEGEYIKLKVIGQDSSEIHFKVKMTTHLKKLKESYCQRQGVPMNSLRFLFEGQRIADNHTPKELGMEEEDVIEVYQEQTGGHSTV
Chain of NADPH oxidase 1 (Q9Y5S8 whole entry): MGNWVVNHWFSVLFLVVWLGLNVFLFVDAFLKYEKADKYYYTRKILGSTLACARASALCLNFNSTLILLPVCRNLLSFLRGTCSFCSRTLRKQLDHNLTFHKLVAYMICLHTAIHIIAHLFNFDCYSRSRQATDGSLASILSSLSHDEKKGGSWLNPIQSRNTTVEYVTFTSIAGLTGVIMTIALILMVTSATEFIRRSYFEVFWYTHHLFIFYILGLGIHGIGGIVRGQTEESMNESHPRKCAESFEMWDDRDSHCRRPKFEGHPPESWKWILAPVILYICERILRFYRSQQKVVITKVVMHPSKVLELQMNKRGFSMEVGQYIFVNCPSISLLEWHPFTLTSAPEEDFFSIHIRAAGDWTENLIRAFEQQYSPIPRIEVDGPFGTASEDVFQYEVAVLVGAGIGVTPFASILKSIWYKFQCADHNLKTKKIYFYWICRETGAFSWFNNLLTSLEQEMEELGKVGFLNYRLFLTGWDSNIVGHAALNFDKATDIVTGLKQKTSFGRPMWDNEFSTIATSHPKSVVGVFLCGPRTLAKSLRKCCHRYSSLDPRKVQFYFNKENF
Chain of Genome polyprotein (P29990 2492-3391 limits assumed): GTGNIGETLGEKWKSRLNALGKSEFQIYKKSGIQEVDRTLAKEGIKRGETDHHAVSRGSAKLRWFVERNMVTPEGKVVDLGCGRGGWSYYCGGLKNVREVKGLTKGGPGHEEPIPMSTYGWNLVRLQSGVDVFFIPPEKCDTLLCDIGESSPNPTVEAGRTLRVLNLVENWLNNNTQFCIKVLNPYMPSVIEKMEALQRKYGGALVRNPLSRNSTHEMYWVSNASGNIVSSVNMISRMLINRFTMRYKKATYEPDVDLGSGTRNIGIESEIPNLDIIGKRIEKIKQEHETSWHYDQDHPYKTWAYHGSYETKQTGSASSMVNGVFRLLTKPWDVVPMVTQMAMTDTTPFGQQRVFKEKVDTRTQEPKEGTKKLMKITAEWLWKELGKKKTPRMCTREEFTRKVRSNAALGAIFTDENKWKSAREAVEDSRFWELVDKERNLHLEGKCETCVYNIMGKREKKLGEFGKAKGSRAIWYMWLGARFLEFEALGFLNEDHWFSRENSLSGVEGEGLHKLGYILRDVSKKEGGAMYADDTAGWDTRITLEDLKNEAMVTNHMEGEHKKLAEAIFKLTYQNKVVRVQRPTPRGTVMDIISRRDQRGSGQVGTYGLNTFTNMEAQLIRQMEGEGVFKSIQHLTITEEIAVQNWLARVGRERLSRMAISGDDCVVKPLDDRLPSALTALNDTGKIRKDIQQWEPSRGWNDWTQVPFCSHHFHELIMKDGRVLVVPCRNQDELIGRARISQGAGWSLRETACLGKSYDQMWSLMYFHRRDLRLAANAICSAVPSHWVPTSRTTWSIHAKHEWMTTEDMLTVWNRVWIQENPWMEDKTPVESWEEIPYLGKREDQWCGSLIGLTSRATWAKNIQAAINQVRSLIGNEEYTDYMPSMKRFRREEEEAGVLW
Chain of ATP-binding cassette sub-family B member 6 (Q9NP58 whole entry): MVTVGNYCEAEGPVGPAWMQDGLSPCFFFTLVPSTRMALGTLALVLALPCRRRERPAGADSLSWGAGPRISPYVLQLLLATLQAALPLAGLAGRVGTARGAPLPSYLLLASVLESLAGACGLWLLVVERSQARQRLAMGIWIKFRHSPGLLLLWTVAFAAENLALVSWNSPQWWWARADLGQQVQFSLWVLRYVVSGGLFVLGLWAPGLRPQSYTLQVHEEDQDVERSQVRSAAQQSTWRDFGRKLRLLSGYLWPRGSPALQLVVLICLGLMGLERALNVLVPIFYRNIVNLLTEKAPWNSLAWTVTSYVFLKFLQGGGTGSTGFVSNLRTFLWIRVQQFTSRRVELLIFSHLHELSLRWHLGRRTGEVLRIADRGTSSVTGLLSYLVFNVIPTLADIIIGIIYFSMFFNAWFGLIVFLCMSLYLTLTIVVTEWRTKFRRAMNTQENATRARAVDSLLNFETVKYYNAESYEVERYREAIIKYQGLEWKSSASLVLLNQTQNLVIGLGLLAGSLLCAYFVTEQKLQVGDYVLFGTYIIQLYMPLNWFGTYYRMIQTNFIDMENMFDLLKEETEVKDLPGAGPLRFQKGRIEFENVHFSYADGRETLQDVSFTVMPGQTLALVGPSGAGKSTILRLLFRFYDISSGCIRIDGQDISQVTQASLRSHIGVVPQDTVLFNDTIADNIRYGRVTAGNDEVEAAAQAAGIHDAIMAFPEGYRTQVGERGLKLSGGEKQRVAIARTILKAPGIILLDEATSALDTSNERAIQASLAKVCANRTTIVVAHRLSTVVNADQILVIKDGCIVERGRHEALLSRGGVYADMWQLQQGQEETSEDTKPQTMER
Chain of SWI/SNF-related matrix-associated actin-dependent regulator of chromatin subfamily A member 2 (P51531 whole entry): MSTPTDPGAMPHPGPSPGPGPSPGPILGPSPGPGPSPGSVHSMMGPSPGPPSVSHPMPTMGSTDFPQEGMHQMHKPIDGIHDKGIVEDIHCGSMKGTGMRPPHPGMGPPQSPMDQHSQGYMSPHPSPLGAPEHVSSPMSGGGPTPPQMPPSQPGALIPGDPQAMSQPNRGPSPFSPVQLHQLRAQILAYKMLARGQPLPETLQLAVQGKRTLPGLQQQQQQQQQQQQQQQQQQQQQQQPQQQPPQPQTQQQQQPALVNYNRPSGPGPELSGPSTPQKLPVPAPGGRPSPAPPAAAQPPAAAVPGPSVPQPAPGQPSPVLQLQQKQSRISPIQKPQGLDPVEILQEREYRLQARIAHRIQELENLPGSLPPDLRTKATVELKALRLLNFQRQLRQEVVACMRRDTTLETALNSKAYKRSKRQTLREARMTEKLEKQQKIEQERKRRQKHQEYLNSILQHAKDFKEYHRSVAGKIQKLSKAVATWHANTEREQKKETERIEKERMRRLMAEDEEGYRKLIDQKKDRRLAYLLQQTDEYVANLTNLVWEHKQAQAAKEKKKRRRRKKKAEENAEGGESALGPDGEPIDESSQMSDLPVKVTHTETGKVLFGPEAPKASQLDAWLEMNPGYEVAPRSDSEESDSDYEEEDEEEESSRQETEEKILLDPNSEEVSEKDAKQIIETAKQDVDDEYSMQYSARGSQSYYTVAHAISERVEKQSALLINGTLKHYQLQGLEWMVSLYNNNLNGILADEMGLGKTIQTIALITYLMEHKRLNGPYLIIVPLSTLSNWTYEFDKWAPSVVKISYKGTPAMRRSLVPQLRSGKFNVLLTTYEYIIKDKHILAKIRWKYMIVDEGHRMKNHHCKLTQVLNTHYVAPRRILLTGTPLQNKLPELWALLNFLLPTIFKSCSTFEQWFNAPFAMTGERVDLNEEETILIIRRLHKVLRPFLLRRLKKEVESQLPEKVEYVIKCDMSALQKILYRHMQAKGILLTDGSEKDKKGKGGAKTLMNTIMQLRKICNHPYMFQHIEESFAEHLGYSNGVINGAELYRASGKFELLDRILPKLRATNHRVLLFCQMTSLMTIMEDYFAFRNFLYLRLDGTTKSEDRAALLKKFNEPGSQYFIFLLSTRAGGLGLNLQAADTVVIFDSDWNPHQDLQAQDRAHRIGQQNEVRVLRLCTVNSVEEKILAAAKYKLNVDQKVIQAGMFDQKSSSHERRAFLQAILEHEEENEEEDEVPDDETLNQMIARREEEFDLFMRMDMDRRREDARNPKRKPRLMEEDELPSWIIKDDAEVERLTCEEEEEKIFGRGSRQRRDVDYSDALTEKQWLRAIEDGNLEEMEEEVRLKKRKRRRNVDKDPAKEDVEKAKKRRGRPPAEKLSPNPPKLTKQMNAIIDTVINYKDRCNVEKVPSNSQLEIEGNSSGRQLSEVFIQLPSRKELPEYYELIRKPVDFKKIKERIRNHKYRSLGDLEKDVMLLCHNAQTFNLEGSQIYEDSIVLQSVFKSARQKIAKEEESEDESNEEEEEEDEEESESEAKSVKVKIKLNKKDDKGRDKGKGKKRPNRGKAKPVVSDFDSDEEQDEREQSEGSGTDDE
Chain of Bcl-2-like protein 1 (Q07817 whole entry): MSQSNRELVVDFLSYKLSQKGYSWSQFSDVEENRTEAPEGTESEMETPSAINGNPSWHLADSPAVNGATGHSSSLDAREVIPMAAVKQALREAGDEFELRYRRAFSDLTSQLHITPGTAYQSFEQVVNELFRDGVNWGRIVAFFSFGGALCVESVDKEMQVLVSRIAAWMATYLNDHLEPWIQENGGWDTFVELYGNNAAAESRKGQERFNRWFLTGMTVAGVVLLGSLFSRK
Chain of Induced myeloid leukemia cell differentiation protein Mcl-1 (Q07820 whole entry): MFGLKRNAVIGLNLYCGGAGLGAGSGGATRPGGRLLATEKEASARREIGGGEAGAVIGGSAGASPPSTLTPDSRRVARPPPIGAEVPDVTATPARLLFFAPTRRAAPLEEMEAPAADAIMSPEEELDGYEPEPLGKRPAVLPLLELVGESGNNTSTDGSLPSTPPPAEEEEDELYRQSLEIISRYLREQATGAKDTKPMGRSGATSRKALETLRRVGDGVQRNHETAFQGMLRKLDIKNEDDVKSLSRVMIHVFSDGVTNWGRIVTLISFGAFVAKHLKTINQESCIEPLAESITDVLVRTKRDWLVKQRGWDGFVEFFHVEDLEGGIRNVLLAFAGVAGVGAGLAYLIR

Cc1ccc(C)c(S(=O)(=O)Nc2ccc3oc(C)c(C(=O)O)c3c2)c1
IC50 [1]: 18.2 µM (not active)
IC50 (Bcl-2-like protein 1): 93.3 µM (not active)
AC50 (Caspase-6): 3.67 µM (active)
IC50 [2]: 11.3 µM (active)
IC50 [3]: 3.21 µM (active)
IC50 [4]: > 66.6 µM (inactive)

COCCNC(=O)/C(C#N)=C/C=C/c1ccccc1[N+](=O)[O-]
CC50 (Vero [5]): 13.4 µM (active)
EC50 [6]: > 91.1 µM (inactive)
EC50 [7]: > 91.1 µM (inactive)
CC50 (Vero [8]): 16 µM (active)

C=CC(=O)Nc1ccc2c(c1)Sc1ccccc1N2C
IC50 (NADPH oxidase 1): 2.38 µM (active)

CCc1nnc(NC(=O)c2nc(S(=O)(=O)Cc3ccc(C)cc3)ncc2Cl)s1
AC50 [9]: 5.97 µM (active)
AC50 [10]: 3.01 µM (active)
AC50 [11]: 6.18 µM (active)
IC50 [12]: 3.31 µM (active)
CC50 (Vero [13]): 28.9 µM (active)
EC50 [14]: 29.5 µM (active)
EC50 (Protein RecA): 4.11 µM (active)
EC50 [15]: 4.8 µM (active)
IC50 [16]: 3.11 µM (active)
AC50 [17]: > 70 µM (inactive)
IC50 (Genome polyprotein): > 100 µM (active)

Cc1ccccc1NC(=O)Nc1ccc(C(F)(F)F)cc1
IC50 [18]: > 100 µM (active)

O=C1C(Cl)=C(N2CCN(CCO)CC2)C(=O)N1c1cccc([N+](=O)[O-])c1
IC50 (Bcl-2-related protein A1 [19]): 30.9 µM (active)
IC50 (Bcl-2-related protein A1 [20]): 10.8 µM (active)
IC50 [21]: > 100 µM (not active)
